Measurements as given in patent publication US10189841B2, “Purinones as ubiquitin-specific protease 1 inhibitors” (Forma Therapeutics, Inc., priority 2015, dated 2019).

molecular target: USP1 (construct USP1 (I-785, GG670, 671AA)/UAF1 (I-677)-Flag) (Homo sapiens (Human), UniProt O94782, G670A/G671A); assay: Ubiquitin-Rhodamine 110 assay for USP1 activity; assay type: biochemical; conditions: USP1/UAF1 25 pM, Ub-Rh110 25 nM, 30 min preincubation
Procedure, shortened: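 Two formats with the USP1/UAF1 complex and 25 nM ubiquitin-rhodamine 110 in pH 8.0 Tris buffer with calcium, glutathione and detergent. Single-point screening used 10 µM, 100 pM enzyme and 45 min. Inhibition was set against no-enzyme and DMSO wells.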

Sequence of USP1 (construct USP1 (I-785, GG670, 671AA)/UAF1 (I-677)-Flag) (O94782 whole entry G670A/G671A): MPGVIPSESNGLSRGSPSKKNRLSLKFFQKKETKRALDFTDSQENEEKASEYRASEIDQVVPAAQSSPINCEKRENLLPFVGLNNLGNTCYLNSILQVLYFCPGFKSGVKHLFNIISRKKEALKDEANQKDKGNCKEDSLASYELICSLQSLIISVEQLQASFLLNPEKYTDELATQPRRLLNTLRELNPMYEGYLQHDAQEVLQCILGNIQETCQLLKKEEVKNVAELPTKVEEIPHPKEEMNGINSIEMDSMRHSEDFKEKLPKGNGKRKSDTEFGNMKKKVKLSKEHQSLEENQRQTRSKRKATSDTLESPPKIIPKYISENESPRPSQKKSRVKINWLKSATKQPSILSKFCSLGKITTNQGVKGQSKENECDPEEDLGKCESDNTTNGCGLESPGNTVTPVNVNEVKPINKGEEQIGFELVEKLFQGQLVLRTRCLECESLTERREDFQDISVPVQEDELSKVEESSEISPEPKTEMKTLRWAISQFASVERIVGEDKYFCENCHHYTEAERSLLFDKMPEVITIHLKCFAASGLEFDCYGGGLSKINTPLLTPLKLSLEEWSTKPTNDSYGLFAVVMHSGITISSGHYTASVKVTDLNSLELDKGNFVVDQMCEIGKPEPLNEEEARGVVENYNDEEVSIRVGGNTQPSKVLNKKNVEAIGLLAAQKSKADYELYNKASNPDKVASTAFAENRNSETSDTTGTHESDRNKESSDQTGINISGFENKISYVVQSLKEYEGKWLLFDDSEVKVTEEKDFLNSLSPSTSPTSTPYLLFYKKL
Sequence of USP1 (construct USP1 (I-785, GG670, 671AA)/UAF1 (I-677)-Flag) (Q8TAF3 whole entry partner): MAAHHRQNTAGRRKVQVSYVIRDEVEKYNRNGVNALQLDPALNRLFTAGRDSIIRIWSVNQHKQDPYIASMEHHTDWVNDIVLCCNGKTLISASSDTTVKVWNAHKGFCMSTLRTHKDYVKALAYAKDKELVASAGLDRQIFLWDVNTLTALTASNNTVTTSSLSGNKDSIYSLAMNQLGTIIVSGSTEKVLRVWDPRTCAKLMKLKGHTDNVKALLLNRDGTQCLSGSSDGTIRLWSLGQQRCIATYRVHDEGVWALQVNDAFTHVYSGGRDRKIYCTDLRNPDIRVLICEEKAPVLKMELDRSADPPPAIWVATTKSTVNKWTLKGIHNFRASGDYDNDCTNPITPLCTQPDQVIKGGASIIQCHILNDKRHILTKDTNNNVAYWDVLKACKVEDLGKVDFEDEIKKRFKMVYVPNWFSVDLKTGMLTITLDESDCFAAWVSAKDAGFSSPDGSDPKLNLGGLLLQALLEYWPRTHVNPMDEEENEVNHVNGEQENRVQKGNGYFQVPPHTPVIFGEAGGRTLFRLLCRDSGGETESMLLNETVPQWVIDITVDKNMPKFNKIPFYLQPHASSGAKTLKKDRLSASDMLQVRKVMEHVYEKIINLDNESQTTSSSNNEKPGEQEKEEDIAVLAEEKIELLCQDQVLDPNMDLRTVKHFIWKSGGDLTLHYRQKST

First: CC(C)c1ccccc1-c1ncc2c(n1)n(Cc1ccc(-n3cccn3)cc1)c(=O)n2C(C)C(=O)O (stereo not drawn) [Compound I-530, 2-(9-(4-(1H-Pyrazol-1-yl)benzyl)-2-(2-isopropylphenyl)-8-oxo-8,9-dihydro-7H-purin-7-yl)propanoic acid]
Second: COC(=O)N1CCC(c2ccn(-c3ccc(Cn4c(=O)[nH]c5cnc(-c6ccccc6C(C)C)nc54)cc3)n2)CC1 [Compound I-543, Methyl 4-(1-(4-((2-(2-isopropylphenyl)-8-oxo-7,8-dihydro-9H-purin-9-yl)methyl)phenyl)-1H-pyrazol-3-yl)piperidine-1-carboxylate]
The IC50 of the first is higher: 200 to 2000 nM for the first, < 50 nM for the second. The second is the more potent here.

CNc1nc(-c2cccnc2OC(F)F)nc2c1[nH]c(=O)n2Cc1ccc(-c2nc(C(F)(F)F)cn2C)cc1 [Compound I-531, 2-(2-(Difluoromethoxy)pyridin-3-yl)-9-(4-(1-methyl-4-(trifluoromethyl)-1H-imidazol-2-yl)benzyl)-6-(methylamino)-7,9-dihydro-8H-purin-8-one] and CNc1nc(-c2ccccc2C(C)C)nc2c1[nH]c(=O)n2Cc1ccc(-c2nc(C(F)(F)F)cn2C)cc1 [Compound I-532, 2-(2-Isopropylphenyl)-9-(4-(1-methyl-4-(trifluoromethyl)-1H-imidazol-2-yl)benzyl)-6-(methylamino)-7,9-dihydro-8H-purin-8-one] cannot be ordered by IC50: < 50 nM for the first, < 50 nM for the second.

CC(C)c1ccccc1-c1nc(N(C)C)c2[nH]c(=O)n(Cc3ccc(-c4nc(C(F)(F)F)cn4C)cc3)c2n1 [Compound I-533, 6-(Dimethylamino)-2-(2-isopropylphenyl)-9-(4-(1-methyl-4-(trifluoromethyl)-1H-imidazol-2-yl)benzyl)-7,9-dihydro-8H-purin-8-one] and COc1nc(-c2ccccc2C(C)C)nc2c1[nH]c(=O)n2Cc1ccc(-c2nc(C(F)(F)F)cn2C)cc1 [Compound I-535, 2-(2-Isopropylphenyl)-6-methoxy-9-(4-(1-methyl-4-(trifluoromethyl)-1H-imidazol-2-yl)benzyl)-7,9-dihydro-8H-purin-8-one] cannot be ordered by IC50: < 50 nM for the first, < 50 nM for the second.

CC(=O)c1nc(-c2ccccc2C(C)C)nc2c1[nH]c(=O)n2Cc1ccc(-c2nc(C(F)(F)F)cn2C)cc1 [Compound I-534, 6-Acetyl-2-(2-isopropylphenyl)-9-(4-(1-methyl-4-(trifluoromethyl)-1H-imidazol-2-yl)benzyl)-7,9-dihydro-8H-purin-8-one] and CC(O)c1ccccc1-c1ncc2[nH]c(=O)n(Cc3ccc(-c4nc(C(F)(F)F)cn4C)cc3)c2n1 (stereo not drawn) [Compound I-544, 2-(2-(1-Hydroxyethyl)phenyl)-9-(4-(1-methyl-4-(trifluoromethyl)-1H-imidazol-2-yl)benzyl)-7,9-dihydro-8H-purin-8-one] fall in the same range of IC50: 50 to 200 nM for the first, 50 to 200 nM for the second.

Cc1cnc(-c2ccc(Cn3c(=O)[nH]c4cnc(-c5ccccc5C(C)C)nc43)cc2)n1C(C)C [Compound I-536, 9-(4-(1-Isopropyl-5-methyl-1H-imidazol-2-yl)benzyl)-2-(2-isopropylphenyl)-7,9-dihydro-8H-purin-8-one] and Cc1cn(C(C)C)c(-c2ccc(Cn3c(=O)[nH]c4cnc(-c5ccccc5C(C)C)nc43)cc2)n1 [Compound I-537, 9-(4-(1-isopropyl-4-methyl-1H-imidazol-2-yl)benzyl)-2-(2-isopropylphenyl)-7,9-dihydro-8H-purin-8-one] cannot be ordered by IC50: < 50 nM for the first, < 50 nM for the second.

Compared with CC(=O)Nc1cn(C)c(-c2ccc(Cn3c(=O)[nH]c4cnc(-c5ccccc5C(C)C)nc43)cc2)n1 [Compound I-538, N-(2-(4-((2-(2-isopropylphenyl)-8-oxo-7,8-dihydro-9H-purin-9-yl)methyl)phenyl)-1-methyl-1H-imidazol-4-yl)acetamide], CC(C)c1ccccc1-c1ncc2[nH]c(=O)n(Cc3ccc(-c4cn[nH]c4)cc3)c2n1 [Compound I-539, 9-(4-(1H-Pyrazol-4-yl)benzyl)-2-(2-isopropylphenyl)-7,9-dihydro-8H-purin-8-one] is higher in IC50: 50 to 200 nM for the first, 200 to 2000 nM for the second.

First: CC(C)c1ccccc1-c1ncc2[nH]c(=O)n(Cc3ccc(-c4cnn(C5CCNCC5)c4)cc3)c2n1 [Compound I-540, 2-(2-isopropylphenyl)-9-(4-(1-(piperidin-4-yl)-1H-pyrazol-4-yl)benzyl)-7,9-dihydro-8H-purin-8-one]
Second: Cc1cc(CO)n(-c2ccc(Cn3c(=O)[nH]c4cnc(-c5ccccc5C5CC5)nc43)cc2)n1 [Compound I-542, 2-(2-Cyclopropylphenyl)-9-(4-(5-(hydroxymethyl)-3-methyl-1H-pyrazol-1-yl)benzyl)-7,9-dihydro-8H-purin-8-one]
The IC50 of the first is higher: 200 to 2000 nM for the first, < 50 nM for the second. The second is the more potent here.

For CC(C)c1ccccc1-c1ncc2c(n1)n(Cc1ccc(-c3nc(C#N)cn3C)cc1)c(=O)n2C [Compound I-541, 2-(4-((2-(2-Isopropylphenyl)-7-methyl-8-oxo-7,8-dihydro-9H-purin-9-yl)methyl)phenyl)-1-methyl-1H-imidazole-4-carbonitrile], the IC50 was < 50 nM.
